Measurements reported in patent publication US4427671A, “Steroids esterified in position 17 and thioesterified in position 21, a process for preparing them and their use as medicaments” (priority 1981, dated 1984).

Legend:
Format in all cases: in vivo, male Sprague-Dawley I.O.P.S. rats
thymus = test: Systemic activity after local administration: effect on the weight of the thymus; settings: rat, in vivo, 8640 min
Protocol: (§1) The pharmacological activity of the products described in the invention was tested in the rat using a technique similar to that described by C. A. Winter and C. C. Porter (J. Am. Pharm. Ass. 1957, 46, 9, pages 515-519).
(§2) The principle of the test consists in implanting a pellet of cotton wool in the dorsal subcutaneous tissue of the animal. The corticoids to be studied are added to the pellet so that the following tests can be carried out:
(§3) (2) Determination of the systemic activity of the products after local administration
(§4) Local application of the corticoids may result, inter alia, in:
(a) a reduction in the defence systems of the organism, the most notable sign of which is a reduction in the weight of the animals' thymuses.
(§5) The animals are divided into random homogeneous groups of 10 male Sprague-Dawley I.O.P.S. rats with a body weight of between 100 and 120 grams.
(§6) The pellets to be implanted weigh from 35 to 40 mg and are prepared from balls of dental cotton wool. Before being inserted, each pellet is weighed and impregnated with the precise quantity of the product which is to be studied, dissolved in 0.2 ml of chloroform. The chloroform is eliminated by evaporation over a period of 24 hours at ambient temperature.
(§7) Before implantation, each pellet is impregnated with a solution of antibiotics:
(§8) The animals are anaesthetised with ether, and then two pellets are implanted in each animal in the dorsal subcutaneous tissue, on each side of the median line:
(§9) on the left, the pellet containing the product to be tested (treated animal) or the carrier only (control animal);
(§10) on the right, the pellet containing the carrier only.
(§11) The animals are given normal food and are sacrificed six days after the pellets have been implanted.
(2) Determination of the systemic effect
The thymuses are taken from the same animals and weighed. Using the same type of calculation, an ED 50 is determined, which corresponds to the dosage of product resulting in a 50% decrease in weight of the thymuses, compared with the control animals.

granuloma = test: Local anti-inflammatory activity: inhibition of granuloma formation around implanted cotton wool pellet; settings: for R 1 (relative local anti-inflammatory activity compared with betamethasone 17,21-dipropionate): D.P.B. = 1, calculated from ED50; for R 1 (relative local anti-inflammatory activity compared with betamethasone 17,21-dipropionate) / ED50 (local anti-inflammatory activity, 50% inhibition in granuloma weight): Table 1; for activity compared with betamethasone 17,21-dipropionate (times greater): local anti-inflammatory test; for ED50 (local anti-inflammatory activity, 50% inhibition in granuloma weight): rat, cotton pellet granuloma, six days after implantation
Protocol: A. Winter and C. C. Porter (J. Am. Pharm. Ass. 1957, 46, 9, pages 515-519).
as §2
(1) Determination of the local anti-inflammatory activity
The presence of products within the pellet may inhibit or prevent the formation of a granuloma.
as §5, §6, §7
Streptomycin 0.1 gram/ml.
as §8, §9, §10, §11
(1) Local anti-inflammatory activity
The pellets surrounded by granulomatous tissue are carefully removed and weighed, and then dried until a constant weight is obtained.
The relative activity of the test products compared with betamethasone 17,21-dipropionate is calculated according to the following equation: [formula]

[1] = Systemic activity after local administration: effect on weight gain; settings: rat, in vivo, 8640 min
Protocol: as §1, §2, §3, §4
(b) Disruption of the protein metabolism which causes tissue fusion, resulting in an inhibition of the weight increase in animals.
as §5, §6, §7, §8, §9, §10, §11
(b) Effect on weight gain
The weight gain over six days is determined on the animals before they are sacrificed.
The activity of the products was expressed as the percentage inhibition in the weight gain of the treated animals compared with the weight gain in the control animals.
The ED 30 which corresponds to a 30% inhibition in the weight gain was determined.

| Structure (SMILES) | ED50 (50% decrease in weight of the thymuses) (thymus) [mg/pellet] | R 2 (relative effect on thymus weight compared with D.P.B.) (thymus) | R 1 (relative local anti-inflammatory activity compared with betamethasone 17,21-dipropionate) (granuloma) | activity compared with betamethasone 17,21-dipropionate (times greater) (granuloma) | ED50 (local anti-inflammatory activity, 50% inhibition in granuloma weight) (granuloma) [mg/pellet] | ED30 (30% inhibition in the weight gain) [1] [mg/pellet] | R 3 (relative activity on weight gain compared with D.P.B.) [1] |
| --- | --- | --- | --- | --- | --- | --- | --- |
| CC(=O)OC1(C(=O)CSC(=O)CC(C)(C)C)C(C)CC2C3CCC4=CC(=O)C=CC4(C)C3(F)C(O)CC21C (stereo not drawn) [Ex. 14, 9α-fluoro-11β-hydroxy-16α-methyl-pregna-1,4-diene-3,20-dione (or dexamethasone) 17-acetate, 21-thio-tert.butyl-acetate] | 0.33 | 2.6 | 537 | more than 100 times | 0.003 | 0.015 | 53 |
| CCC(=O)OC1(C(=O)CSC(=O)CC)C(C)CC2C3CCC4=CC(=O)C=CC4(C)C3(Cl)C(O)CC21C (stereo not drawn) [Ex. 15, 9α-chloro-11β-hydroxy-16β-methyl-pregna-1,4-diene-3,20-dione (or beclomethasone) 17-propionate, 21-thiopropionate] | 2.4 | 0.36 | > 322 | more than 100 times | < 0.005 | 0.56 | 1.42 |
| CCCCC(=O)SCC(=O)C1(OC(=O)CC)C(C)CC2C3CCC4=CC(=O)C=CC4(C)C3(Cl)C(O)CC21C (stereo not drawn) [Ex. 16, 9α-chloro-11β-hydroxy-16β-methyl-pregna-1,4-diene-3,20-dione (or beclomethasone) 17-propionate, 21-thiovalerate] | > 1 | < 0.86 | 13.4 | – | 0.120 | > 1.0 | < 0.8 |
| CCCCC(=O)OC1(C(=O)CSC(C)=O)C(C)CC2C3CCC4=CC(=O)C=CC4(C)C3(Cl)C(O)CC21C (stereo not drawn) [Ex. 17, 9α-chloro-11β-hydroxy-16β-methyl-pregna-1,4-diene-3,20-dione (or beclomethasone) 17-valerate, 21-thioacetate] | > 1 | < 0.86 | 8.9 | – | 0.180 | > 1.0 | < 0.8 |
| CCCCC(=O)OC1(C(=O)CSC(=O)CCCC)C(C)CC2C3CCC4=CC(=O)C=CC4(C)C3(Cl)C(O)CC21C (stereo not drawn) [Ex. 18, 9α-chloro-11β-hydroxy-16β-methyl-pregna-1,4-diene-3,20-dione (or beclomethasone) 17-valerate, 21-thiovalerate] | > 1 | < 0.86 | 16.8 | – | 0.096 | > 1.0 | < 0.8 |
| C=C1C[C@H]2[C@@H]3CCC4=CC(=O)C=C[C@]4(C)[C@H]3[C@@H](O)C[C@]2(C)[C@@]1(OC(=O)CC)C(=O)CSC(=O)CC [Ex. 19, 11β-hydroxy-16-methylene-pregna-1,4-diene-3,20 dione (or prednylidene)17-propionate, 21-thiopropionate] | 7 | 0.12 | 0.89 | – | 1.800 | 0.015 | 53 |
